# Publication PMC4259018 (MedChemComm, 2014)
# Experiments:
# [1] = test system: mPTPB transfected Raw264.7 cells; assay type: cell-based; settings: 10 μM
# [2] = target: mPTPB (Mycobacterium tuberculosis, UniProt I6WXK4); experiment: mPTPB catalyzed para-nitrophenyl phosphate hydrolysis inhibition; assay type: biochemical; settings: for activity at 100 μM: 100 μM compound
# [3] = test system: human PTPs; experiment: Specificity for mPTPB over panel of human PTPs; assay type: biochemical; settings: mPTPB versus PTP1B, SHP2, SHP1, PTP-Meg2, CD45, PTPε, VHR, Laforin
# Sequence of mPTPB (I6WXK4 whole entry, looked up): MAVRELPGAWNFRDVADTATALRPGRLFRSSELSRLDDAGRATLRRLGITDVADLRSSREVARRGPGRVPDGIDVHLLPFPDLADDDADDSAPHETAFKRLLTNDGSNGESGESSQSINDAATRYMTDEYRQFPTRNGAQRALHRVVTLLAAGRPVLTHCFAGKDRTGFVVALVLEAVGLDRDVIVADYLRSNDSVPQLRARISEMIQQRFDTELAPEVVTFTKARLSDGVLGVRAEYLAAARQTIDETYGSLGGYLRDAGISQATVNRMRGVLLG
smiles,measurement,setting,value
O=C(O)c1cc2sc(Nc3ccccc3)nc2cc1O [11a],effects on Erk1/2 and Akt phosphorylation,[1],has no such effects
same,fold more active than 11b,[2],3 fold
O=C(O)c1cc2sc(Nc3cccc(Br)c3)nc2cc1O [11h],fold preference for mPTPB against human PTPs,[3],over 20 fold
same,Akt phosphorylation,"[1]; 5 μM, dose dependent",decreased
same,Erk1/2 phosphorylation,"[1]; 5 μM, dose dependent",increased
same,Ki,[2],2.2 ± 0.1 µM
same,fold increase in potency in comparison to 11a,[2],12 fold
same,mode of inhibition,"[2]; mPTPB, against pNPP",noncompetitive inhibitor
same,fold improvement of salicylic acid mPTPB inhibitory activity,"[2]; mPTPB, versus salicylic acid","27,500 fold"
O=C(O)c1cc2[nH]c(=O)oc2cc1O [compound 6],activity at 100 μM,[2]; mPTPB,did not exhibit activity
O=C1COc2cc(O)c(C(=O)O)cc2N1 [compound 7],activity at 100 μM,[2]; mPTPB,did not exhibit activity
O=C(O)CN1CC(=O)Oc2cc(O)c(C(=O)O)cc21 [compound 8],activity at 100 μM,[2]; mPTPB,did not exhibit activity
O=C(O)c1cc2nc(-c3ccccc3)oc2cc1O [compound 9],IC50,[2],20 to 30 µM
O=C(O)c1cc2[nH]c(-c3ccccc3)nc2cc1O [compound 10],IC50,[2],20 to 30 µM
